Results: patent US20200147039A1, “COMPOUNDS USEFUL IN INHIBITING HUMAN TREFOIL FACTOR 3” (NATIONAL UNIVERSITY OF SINGAPORE, priority 2017, published 2020)

Columns and labels:
A2-528 = assay: AlamarBlue cell viability assay, A2-528; format: cell-based; details: Homo sapiens, Gastric
Procedure: (§1) The human immortalized mammary epithelial cell lines, MCF10A, and MCF12A; and immortalized hepatocellular epithelial cell line, LO2 were obtained from the American Type Culture Collection (ATCC, Rockville, Md.) and were cultured as per ATCC propagation instructions. MC cell lines, MCF7, T47D, BT474, BT20, MDA-MB-361, MDA-MB-436, MDA-MB-468, and MDA-MB-231; endometrial carcinoma cell lines, Ishikawa, ECC1, RL95-2 and AN3; hepatocellular carcinoma cell lines, Hep3B, H2P, and H2M; colon carcinoma cell lines, DLD-1, and Caco-2; and prostate carcinoma cell lines, PC3, LNCaP, and DU145 were obtained from the American Type Culture Collection (ATCC, Rockville, Md.). Pancreatic carcinoma cell lines, AsPC-1 and BxPC-3; Lung carcinoma cell lines, HCC-827, NCI-H1975, HCC-4006, PC-14, and NCI-H1299; and Thyroid carcinoma cell lines HTH83, CAL62, T238, and OGK-M were obtained from Prof. H. Phillip Koeffler's laboratory at The Cancer Science Institute of Singapore, National University of Singapore (NUS). Gastric carcinoma cell lines, AGS, MKN-28, MKN-45, and A2-528 were obtained from Prof. […]
(§2) In table 9 IC50 values of compound 43 compound library in several cancer cell lines are tabulated, using an AlamarBlue® cell viability assay as previously described in Pandey V et al., Breast Cancer Res. 2014; 16(5):429. Statistical analysis was assessed by using GraphPad Prism5. […]

LNCaP = assay: AlamarBlue cell viability assay, LNCaP; format: cell-based; details: Homo sapiens, Prostate
Procedure: as §1, §2

DLD-1 = assay: AlamarBlue cell viability assay, DLD-1; format: cell-based; details: Homo sapiens, Colon
Procedure: as §1, §2

Ishikawa = assay: AlamarBlue cell viability assay, Ishikawa; format: cell-based; details: Homo sapiens, Endometrial
Procedure: as §1, §2

HCC827 = assay: AlamarBlue cell viability assay, HCC827; format: cell-based; details: Homo sapiens, Lung
Procedure: as §1, §2

PC-14 = assay: AlamarBlue cell viability assay, PC-14; format: cell-based; details: Homo sapiens, Lung
Procedure: as §1, §2

AN3 = assay: AlamarBlue cell viability assay, AN3; format: cell-based; details: Homo sapiens, Endometrial
Procedure: as §1, §2

CAL62 = assay: AlamarBlue cell viability assay, CAL62; format: cell-based; details: Homo sapiens, CAL-62, Thyroid
Procedure: as §1, §2

RL95-2 = assay: AlamarBlue cell viability assay, RL95-2; format: cell-based; details: Homo sapiens, Endometrial
Procedure: as §1, §2

PC3 = assay: AlamarBlue cell viability assay, PC3; format: cell-based; details: Homo sapiens, PC-3, Prostate
Procedure: as §1, §2

DU145 = assay: AlamarBlue cell viability assay, DU145; format: cell-based; details: Homo sapiens, DU-145, Prostate
Procedure: as §1, §2

BT474 [1] = assay: qPCR analysis of mRNA levels of genes associated with oncogenic progression, BT474; format: cell-based, human; details: BT474, 10 μM
Procedure: Total RNA was isolated from cells using TRIzol Plus RNA Purification system as previously described in Pandey V et al., Endocrinology. 2010; 151(3):909-920. qPCR assays were performed as previously described in Pandey V et al., Endocrinology. 2010; 151(3):909-920; and Pandey V et al., Endocrinology. 2008; 149(8):3909-3919. Gene expression analysis was performed as previously described in Pandey V et al., Endocrinology. 2010; 151(3):909-920; and Pandey V et al., Endocrinology. 2008; 149(8):3909-3919.

BT474 [2] = assay: AlamarBlue cell viability assay, BT474; format: cell-based; details: Homo sapiens, BT-474, Mammary
From the text: (§3) (A) Inhibitory concentration 50% (IC50) values for compound 43 in the MC cell lines are tabulated, using an AlamarBlue™ cell viability assay as previously described in Pandey V et al., Breast Cancer Res. 2014; 16(5):429. (B) Measured dose-dependent manner effect of compound 43 on the viability of MC cells (left-side, TFF3-high and right, TFF3-low) using AlamarBlue™ viability assay as previously described (ibid). (C) Apoptotic cell death of mammary carcinoma cell lines measured after treatment with 10 μM compound 43 using flow cytometry analysis at 24 hour as described previously in Keerthy H K et al., PloS one. 2014; 9(9):e107118. Annexin V-FITC staining is indicated on the X-axis and PI staining on the Y-axis. […] Acquisition of Annexin V and PI data were represented as percentage (%) in each quadrant. Note: CM, conditioned media; MCF10A and MCF12A, non-transformed immortalized-mammary epithelial cell line. Points are mean of triplicate experiments; bars, ±SD. Statistical significance was assessed by using an unpaired two-tailed Student's t test (P<0.05 was considered as significant) using GraphPad Prism5. […]
as §2

AGS = assay: AlamarBlue cell viability assay, AGS; format: cell-based; details: Homo sapiens, Gastric
Procedure: as §1, §2

MDA-MB-231 = assay: AlamarBlue cell viability assay, MDA-MB-231; format: cell-based; details: Homo sapiens, Mammary
From the text: as §3, §2

AsPC-1 = assay: AlamarBlue cell viability assay, AsPC-1; format: cell-based; details: Homo sapiens, ASPC1, Pancreatic
Procedure: as §1, §2

MKN-28 = assay: AlamarBlue cell viability assay, MKN-28; format: cell-based; details: Homo sapiens, Gastric
Procedure: as §1, §2

Question: What does the source list for Cc1cc(-c2ccc(C3C(C#N)=C(N)Oc4c3c(=O)oc3ccccc43)cc2)cnc1F (centres unmarked) [Compound 43, 2-Amino-4-(4-(6-fluoro-5-methylpyridin-3-yl)phenyl)-5-oxo-4H,5H-pyrano[3,2-c]chromene-3-carbonitrile]?
Answer: IC50 (A2-528): 34.1 µM; IC50 (LNCaP): 226 µM; IC50 (DLD-1): 4.12 µM; IC50 (Ishikawa): 0.94 µM; IC50 (HCC827): 0.93 µM; IC50 (PC-14): 24.2 µM; IC50 (AN3): 289 µM; IC50 (CAL62): 33.1 µM; IC50 (RL95-2): 90.5 µM; IC50 (PC3): 0.68 µM; IC50 (DU145): 1.91 µM; APAF1 mRNA, Fold change relative to vehicle control (BT474 [1]): 1.27 fold; ATM mRNA, Fold change relative to vehicle control (BT474 [1]): 0.80 fold; BAD mRNA, Fold change relative to vehicle control (BT474 [1]): 0.04 fold; BAK1 mRNA, Fold change relative to vehicle control (BT474 [1]): 1.92 fold; BAX mRNA, Fold change relative to vehicle control (BT474 [1]): 21.55 fold; BCL2L1 mRNA, Fold change relative to vehicle control (BT474 [1]): 0.05 fold; BCL2 mRNA, Fold change relative to vehicle control (BT474 [1]): 0.02 fold; BCLAF1 mRNA, Fold change relative to vehicle control (BT474 [1]): 1.26 fold; BRCA1 mRNA, Fold change relative to vehicle control (BT474 [1]): 0.47 fold; CASP7 mRNA, Fold change relative to vehicle control (BT474 [1]): 103.76 fold; CCND1 mRNA, Fold change relative to vehicle control (BT474 [1]): 0.04 fold; CDC25A mRNA, Fold change relative to vehicle control (BT474 [1]): 0.15 fold; CDK2 mRNA, Fold change relative to vehicle control (BT474 [1]): 1.05 fold; CDK4 mRNA, Fold change relative to vehicle control (BT474 [1]): 0.66 fold; CDKN1A mRNA, Fold change relative to vehicle control (BT474 [1]): 27.15 fold; CDKN1B mRNA, Fold change relative to vehicle control (BT474 [1]): 0.14 fold; CDKN2A mRNA, Fold change relative to vehicle control (BT474 [1]): 1.43 fold; CFLAR mRNA, Fold change relative to vehicle control (BT474 [1]): 9.08 fold; CHEK2 mRNA, Fold change relative to vehicle control (BT474 [1]): 0.85 fold; Cyclin E1 mRNA, Fold change relative to vehicle control (BT474 [1]): 0.08 fold; E2F1 mRNA, Fold change relative to vehicle control (BT474 [1]): 0.51 fold; GZMA mRNA, Fold change relative to vehicle control (BT474 [1]): 3.66 fold; HTATIP2 mRNA, Fold change relative to vehicle control (BT474 [1]): 6.64 fold; MDM2 mRNA, Fold change relative to vehicle control (BT474 [1]): 0.99 fold; RB1 mRNA, Fold change relative to vehicle control (BT474 [1]): 0.86 fold; S100A4 mRNA, Fold change relative to vehicle control (BT474 [1]): 4.80 fold; TERT mRNA, Fold change relative to vehicle control (BT474 [1]): 0.08 fold; TNFRSF1A mRNA, Fold change relative to vehicle control (BT474 [1]): 35.64 fold; TNFRSF10B mRNA, Fold change relative to vehicle control (BT474 [1]): 9.22 fold; TNFRSF25 mRNA, Fold change relative to vehicle control (BT474 [1]): 7.11 fold; TP53 mRNA, Fold change relative to vehicle control (BT474 [1]): 459.09 fold; IC50 (BT474 [2]): 2.69 µM; IC50 (AGS): 3.08 µM; IC50 (MDA-MB-231): 408 µM; IC50 (AsPC-1): 4.41 µM; IC50 (MKN-28): 84.9 µM
